# Laboratory results reported in BindingDB's records for doi:10.1111/j.1747-0285.2009.00881.x (University of Notre Dame, 2009).
# Biological target: 72 kDa type IV collagenase (Homo sapiens, UniProt P08253)
# Test: Inhibition Assay
# Excerpt: Inhibition assay using matrix metalloproteinase (MMP-2).
# 72 kDa type IV collagenase, sequence (P08253 whole entry): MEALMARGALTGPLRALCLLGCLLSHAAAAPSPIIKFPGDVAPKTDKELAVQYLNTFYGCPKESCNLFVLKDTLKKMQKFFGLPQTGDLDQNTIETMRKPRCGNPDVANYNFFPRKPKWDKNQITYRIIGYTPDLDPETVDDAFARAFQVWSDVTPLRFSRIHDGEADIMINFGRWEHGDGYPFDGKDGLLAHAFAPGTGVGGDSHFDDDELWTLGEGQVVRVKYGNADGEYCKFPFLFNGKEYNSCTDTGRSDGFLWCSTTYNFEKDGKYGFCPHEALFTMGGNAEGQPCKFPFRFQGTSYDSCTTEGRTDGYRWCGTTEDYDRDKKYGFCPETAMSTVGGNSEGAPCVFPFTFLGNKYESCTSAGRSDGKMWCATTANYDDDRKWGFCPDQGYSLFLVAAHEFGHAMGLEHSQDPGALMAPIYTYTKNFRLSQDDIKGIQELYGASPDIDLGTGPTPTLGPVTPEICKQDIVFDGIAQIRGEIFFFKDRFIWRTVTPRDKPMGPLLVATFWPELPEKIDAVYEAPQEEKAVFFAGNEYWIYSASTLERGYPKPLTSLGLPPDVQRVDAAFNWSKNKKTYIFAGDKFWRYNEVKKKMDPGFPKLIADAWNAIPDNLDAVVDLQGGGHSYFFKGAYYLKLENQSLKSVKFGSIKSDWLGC
row,SMILES,Ki [nM]
1,"CC(C)(C1CS1)S(=O)(=O)c1ccc(Oc2ccccc2)cc1 (stereo not drawn) [Alpha, alpha-dimethyl derivative, 5]",> 40000
2,"CC1(C)SC1CS(=O)(=O)c1ccc(Oc2ccccc2)cc1 (centres undefined) [Gama, gama-dimethyl derivative, 6]",1400
3,"[O-][S+](CC1CS1)c1ccc(Oc2ccccc2)cc1 (centres undefined) [Sulfoxide, 4]",2100
4,"O=S(=O)(/C=C/CS)c1ccc(Oc2ccccc2)cc1 [Vinylsulfone, 7]",0.53
